Source: EP0665239A1, “Peptide derivatives of bactenecin endowed with antibacterial activity” (CONSIGLIO NAZIONALE DELLE RICERCHE, priority 1994, dated 1995)
Read-outs that look alike come from different tables or passages of the source. No end group written: not given here.

Experiments:
Format in all cases: cell-based
[1] = tested on: Salmonella typhimurium ATCC 14028
Experimental: (§1) The antibacterial activity of the peptides of this invention was evaluated by determining the minimal inhibitory concentration (MIC) of bacterial growth.
(§2) Each peptide was incubated in microtitration plates, at concentrations that decreased form 320 to 0.1 micrograms/ml, in which the wells contained a final volume of 0.1 ml of Mueller-Hinton broth with 3-5x10⁴ bacteria at the semi-logarithmic growth phase.
(§3) In each experiment, the MIC of Bac5 and Bac7 were also measured, for the purpose of comparison.
(§4) In these assays, the following bacterial strains were used: Escherichia coli ATCC 25922, Salmonella typhimurium ATCC 14028, Klebsiella pneumoniae ATCC 13883 and Enterobacter cloacae ATCC 13047.

[2] = tested on: Enterobacter cloacae ATCC 13047
Experimental: as §1, §2, §3, §4

[3] = tested on: Escherichia coli ATCC 25922
Experimental: as §1, §2, §3, §4

[4] = tested on: Klebsiella pneumoniae ATCC 13883
Experimental: as §1, §2, §3, §4

[5] = Enterobacter cloacae ATCC 13047, Mueller-Hinton broth, 3-5x10⁴ bacteria, 16 hours at 37° C
[6] = Escherichia coli ATCC 25922, Mueller-Hinton broth, 3-5x10⁴ bacteria, 16 hours at 37° C
[7] = Salmonella typhimurium ATCC 14028, Mueller-Hinton broth, 3-5x10⁴ bacteria, 16 hours at 37° C
[8] = Klebsiella pneumoniae ATCC 13883, Mueller-Hinton broth, 3-5x10⁴ bacteria, 16 hours at 37° C

Row | Sequence | MIC ([1]; ATCC 14028) [µM] | MIC ([1]; ATCC 14028, 16 h) [µg/mL] | MIC ([2]; ATCC 13047) [µM] | MIC [2, 5] [µg/mL] | MIC ([3]; ATCC 25922) [µM] | MIC [3, 6] [µg/mL] | MIC ([4]; ATCC 13883) [µM] | MIC ([4]; ATCC 13883, 16 h) [µg/mL] | MIC ([1]; Salmonella typhimurium ATCC 14028, MICs of Table 1 expressed in molar terms) [µM] | MIC [1, 7] [µg/mL] | MIC ([2]; Enterobacter cloacae ATCC 13047, MICs of Table 1 expressed in molar terms) [µM] | MIC ([3]; Escherichia coli ATCC 25922, MICs of Table 1 expressed in molar terms) [µM] | MIC ([4]; Klebsiella pneumoniae ATCC 13883, MICs of Table 1 expressed in molar terms) [µM] | MIC [4, 8] [µg/mL] | MIC ([2]; ATCC 13047, 16 h) [µg/mL] | MIC ([3]; ATCC 25922, 16 h) [µg/mL]
1 | RRIRPRPPRLPRPRPRPLPFPRPGPRPIPRPLPFP [Peptide A] | 0.15 to 0.3 | 0.6 to 1.2 | 0.15 | 0.6 | 0.3 | 1.2 | 0.15 to 0.3 | 0.6 to 1.2 | – | – | – | – | – | – | – | –
2 | RRIRPRPPRLPRPRPRPLPFPRP [Peptide B] | – | – | – | 0.6 to 1.2 | – | 1.2 to 2.5 | – | – | 0.2 to 0.4 | 0.6 to 1.2 | 0.2 to 0.4 | 0.4 to 0.8 | 0.2 to 0.4 | 0.6 to 1.2 | – | –
3 | RRIRPRPPRLPRPRPRPL [Peptide D, Arg-Arg-Ile-Arg-Pro-Arg-Pro-Pro-Arg-Leu-Pro-Arg-Pro-Arg-Pro-Arg-Pro-Leu] | 0.5 | – | 0.5 to 1.0 | – | 1.0 | 2.5 | 0.2 to 0.5 | 0.6 to 1.2 | – | 1.2 | – | – | – | – | 1.2 to 2.5 | –
4 | RFRPPIRRPPIRPPFYPPFRPPIRP [Peptide C] | 0.8 | – | 0.8 to 1.6 | – | 0.8 to 1.6 | – | 0.8 | – | – | 2.5 | – | – | – | 2.5 | 2.5 to 5 | 2.5 to 5
